The target in the test is T1, ΔF508-CFTR (Homo sapiens, UniProt P13569, DEL508-508).
T1 construct: expressed in transfected cells
The test can be described thus: Membrane potential optical (FRET/VIPR) assay, identification of potentiator compounds. In kind it is cell-based. As to conditions: Table 3, assay not given; for % Activity: relative efficacy. A digest of the protocol:
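NIH3T3 mouse fibroblasts stably expressing ΔF508-CFTR, temperature-corrected 24 h at 27° C., read on VIPR by FRET between CC2-DMPE and DiSBAC2(3). Potentiators identified in a double-addition format, first adding chloride-free (gluconate) medium with or without compound.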

T1 sequence (P13569 with tags, fused parts or gaps DEL508-508): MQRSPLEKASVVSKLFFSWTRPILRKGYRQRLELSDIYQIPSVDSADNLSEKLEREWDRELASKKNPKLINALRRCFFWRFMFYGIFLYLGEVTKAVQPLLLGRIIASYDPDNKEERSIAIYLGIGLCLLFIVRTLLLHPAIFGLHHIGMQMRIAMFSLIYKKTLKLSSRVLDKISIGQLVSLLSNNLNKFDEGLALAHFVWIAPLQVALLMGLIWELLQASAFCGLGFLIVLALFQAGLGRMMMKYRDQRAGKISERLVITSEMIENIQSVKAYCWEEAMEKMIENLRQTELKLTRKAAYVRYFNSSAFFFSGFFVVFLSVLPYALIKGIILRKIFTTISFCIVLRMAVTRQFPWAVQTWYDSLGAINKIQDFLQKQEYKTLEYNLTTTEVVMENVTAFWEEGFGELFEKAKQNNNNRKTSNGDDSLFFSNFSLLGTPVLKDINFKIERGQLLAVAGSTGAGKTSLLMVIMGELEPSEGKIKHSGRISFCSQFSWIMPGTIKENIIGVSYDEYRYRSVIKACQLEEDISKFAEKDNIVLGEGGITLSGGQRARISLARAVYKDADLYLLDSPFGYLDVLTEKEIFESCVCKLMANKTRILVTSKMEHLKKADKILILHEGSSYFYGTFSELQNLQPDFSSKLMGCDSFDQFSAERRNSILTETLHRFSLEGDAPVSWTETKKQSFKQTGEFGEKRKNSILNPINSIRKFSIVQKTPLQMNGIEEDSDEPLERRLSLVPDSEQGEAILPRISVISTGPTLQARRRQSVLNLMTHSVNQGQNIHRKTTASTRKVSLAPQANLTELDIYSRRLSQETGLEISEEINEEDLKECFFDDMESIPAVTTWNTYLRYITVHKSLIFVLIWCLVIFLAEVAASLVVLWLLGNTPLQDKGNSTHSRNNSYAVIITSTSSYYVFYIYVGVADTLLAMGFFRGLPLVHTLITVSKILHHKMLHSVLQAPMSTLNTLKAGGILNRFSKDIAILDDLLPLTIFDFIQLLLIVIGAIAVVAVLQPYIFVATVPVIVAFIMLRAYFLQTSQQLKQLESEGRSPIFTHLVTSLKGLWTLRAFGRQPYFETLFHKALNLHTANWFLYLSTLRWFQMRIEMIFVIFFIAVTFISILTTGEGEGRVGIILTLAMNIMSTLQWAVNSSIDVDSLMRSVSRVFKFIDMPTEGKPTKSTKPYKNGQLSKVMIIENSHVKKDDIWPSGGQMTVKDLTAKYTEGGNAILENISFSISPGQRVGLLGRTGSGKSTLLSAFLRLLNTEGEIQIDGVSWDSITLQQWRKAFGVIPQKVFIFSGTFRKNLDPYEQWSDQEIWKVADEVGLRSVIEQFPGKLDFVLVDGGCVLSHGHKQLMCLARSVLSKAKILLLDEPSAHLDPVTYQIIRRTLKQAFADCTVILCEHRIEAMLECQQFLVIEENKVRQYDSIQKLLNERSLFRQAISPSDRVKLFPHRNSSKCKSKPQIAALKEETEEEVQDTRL

As a reminder, the EC50 is the concentration needed to bring the measured effect to its halfway point. For `CC(C)(C)c1cc(C(C)(C)C)c(NC(=O)c2c[nH]c3ccc(C#N)cc3c2=O)cc1O` [Compound 525, 6-cyano-N-(5-hydroxy-2,4-ditert-butyl-phenyl)-4-oxo-1H-quinoline-3-carboxamide], the EC50 is less than 10 µM and the “% Activity” value is listed as “+ (<25%)”. For the molecule `CCOc1cccc2c(=O)c(C(=O)Nc3cc(O)c(C(C)(C)C)cc3F)c[nH]c12` [Compound 526, 8-ethoxy-N-(2-fluoro-5-hydroxy-4-tert-butyl-phenyl)-4-oxo-1H-quinoline-3-carboxamide], the EC50 fell in the range of 10 to 25 µM and the “% Activity” value is recorded as “+ (<25%)”. With `CC(C)(C)c1ccc(NC(=O)c2c[nH]c3ccc(F)cc3c2=O)cc1F` [Compound 527, 6-fluoro-N-(3-fluoro-4-tert-butyl-phenyl)-4-oxo-1H-quinoline-3-carboxamide], the EC50 was less than 10 µM and the “% Activity” value was “++ (between 25% to 100%)”. Take `Cc1cccc2[nH]cc(C(=O)Nc3ccc(N4CCC(F)(F)C4)cc3C(F)(F)F)c(=O)c12` [Compound 528, N-[4-(3,3-difluoropyrrolidin-1-yl)-2-(trifluoromethyl)phenyl]-5-methyl-4-oxo-1H-quinoline-3-carboxamide]: the half-maximal effective concentration (EC50) is less than 10 µM and the “% Activity” value is on record as “++ (between 25% to 100%)”. Take `CC1(c2ccc(NC(=O)c3c[nH]c4cccc(O)c4c3=O)cc2)COC1` [Compound 529, 5-hydroxy-N-[4-(3-methyloxetan-3-yl)phenyl]-4-oxo-1H-quinoline-3-carboxamide]: the EC50 is less than 10 µM and the “% Activity” value is “++ (between 25% to 100%)”. With `COC(=O)[C@@H]1[C@@H](C)CCN1c1ccc(NC(=O)c2c[nH]c3ccccc3c2=O)c(C(F)(F)F)c1` [Compound 530, (2S,3S)-methyl 3-methyl-1-(4-(4-oxo-1,4-dihydroquinoline-3-carboxamido)-3-(trifluoromethyl)phenyl)pyrrolidine-2-carboxylate], the concentration for a half-maximal effect (EC50) was less than 10 µM and the “% Activity” value is “++ (between 25% to 100%)”. The like results for `COC(=O)[C@@H]1[C@H]2C[C@H]2CN1c1ccc(NC(=O)c2c[nH]c3ccccc3c2=O)c(C(F)(F)F)c1` [Compound 531, (1S,2S,5R)-methyl 3-(4-(4-oxo-1,4-dihydroquinoline-3-carboxamido)-3-(trifluoromethyl)phenyl)-3-azabicyclo[3.1.0]hexane-2-carboxylate] were, in that order, less than 10 µM and “++ (between 25% to 100%)”.

As to `O=C(Nc1ccc(C(F)(F)F)cc1Cl)c1c[nH]c2ccccc2c1=O` [Compound 532, N-[2-chloro-4-(trifluoromethyl)phenyl]-4-oxo-1H-quinoline-3-carboxamide], the 50% effective concentration (EC50) is less than 10 µM and the “% Activity” value was “++ (between 25% to 100%)”. The matching figures for `COc1ccc2[nH]cc(C(=O)Nc3cc4[nH]ccc4cc3C(C)(C)C)c(=O)c2c1` [Compound 533, 6-methoxy-4-oxo-N-(5-tert-butyl-1H-indol-6-yl)-1H-quinoline-3-carboxamide]: less than 10 µM and “+++ (>100%)”. With `CN(C)[C@@H]1CCN(c2ccc(NC(=O)c3c[nH]c4ccccc4c3=O)c(C(F)(F)F)c2)C1` [Compound 534, (R)-N-(4-(3-(dimethylamino)pyrrolidin-1-yl)-2-(trifluoromethyl)phenyl)-4-oxo-1,4-dihydroquinoline-3-carboxamide], the concentration giving a half-maximal response (EC50) is less than 10 µM and the “% Activity” value is “++ (between 25% to 100%)”. Consider `CC(C)(C)c1c[nH]c2cc(NC(=O)c3c[nH]c4cccc(O)c4c3=O)ccc12` [Compound 535, 5-hydroxy-4-oxo-N-(3-tert-butyl-1H-indol-6-yl)-1H-quinoline-3-carboxamide], for which the concentration for a half-maximal effect (EC50) is less than 10 µM and the “% Activity” value is “++ (between 25% to 100%)”. Turning to `CC1(C)CCN(c2ccc(NC(=O)c3c[nH]c4ccccc4c3=O)c(C(F)(F)F)c2)C1` [Compound 536, N-[4-(3,3-dimethylpyrrolidin-1-yl)-2-(trifluoromethyl)phenyl]-4-oxo-1H-quinoline-3-carboxamide], the 50% effective concentration (EC50) was less than 10 µM and the “% Activity” value is “++ (between 25% to 100%)”. As to `O=C(Nc1ccc2cc(C(F)(F)F)[nH]c2c1)c1c[nH]c2ccccc2c1=O` [Compound 537, 4-oxo-N-[2-(trifluoromethyl)-1H-indol-6-yl]-1H-quinoline-3-carboxamide], the EC50 is less than 10 µM and the “% Activity” value was “++ (between 25% to 100%)”.

On to `Cc1cc(OC(F)(F)F)ccc1NC(=O)c1c[nH]c2ccccc2c1=O` [Compound 538, N-[2-methyl-4-(trifluoromethoxy)phenyl]-4-oxo-1H-quinoline-3-carboxamide], for which the half-maximal effective concentration (EC50) was less than 10 µM and the “% Activity” value is on record as “++ (between 25% to 100%)”. As to `Cc1cccc2[nH]cc(C(=O)Nc3ccc(N4[C@H](C)CC[C@H]4C)cc3C(F)(F)F)c(=O)c12` [Compound 539, N-(4-((2R,5R)-2,5-dimethylpyrrolidin-1-yl)-2-(trifluoromethyl)phenyl)-5-methyl-4-oxo-1,4-dihydroquinoline-3-carboxamide], the EC50 was less than 10 µM and the “% Activity” value is given as “++ (between 25% to 100%)”. For the molecule `CC(C)(C)OC(=O)[C@H]1CCCN1c1ccc(NC(=O)c2c[nH]c3ccccc3c2=O)c(C(F)(F)F)c1` [Compound 540, (R)-tert-butyl 1-(4-(4-oxo-1,4-dihydroquinoline-3-carboxamido)-3-(trifluoromethyl)phenyl)pyrrolidine-2-carboxylate], the EC50 is less than 10 µM and the “% Activity” value was “+++ (>100%)”. For `Cc1cccc2[nH]cc(C(=O)Nc3ccc(N4CC[C@@H](F)C4)cc3C(F)(F)F)c(=O)c12` [Compound 541, (R)-N-(4-(3-fluoropyrrolidin-1-yl)-2-(trifluoromethyl)phenyl)-5-methyl-4-oxo-1,4-dihydroquinoline-3-carboxamide], the concentration giving a half-maximal response (EC50) is less than 10 µM and the “% Activity” value was “++ (between 25% to 100%)”. Take `CNc1cccc2[nH]cc(C(=O)Nc3cc(O)c(C(C)(C)C)cc3C(C)(C)C)c(=O)c12` [Compound 542, N-(5-hydroxy-2,4-ditert-butyl-phenyl)-5-methylamino-4-oxo-1H-quinoline-3-carboxamide]: the EC50 is less than 10 µM and the “% Activity” value is “+++ (>100%)”. For `CN(C)c1ccc2[nH]cc(C(=O)Nc3cc(O)c(C(C)(C)C)cc3C(C)(C)C)c(=O)c2c1` [Compound 544, 6-dimethylamino-N-(5-hydroxy-2,4-ditert-butyl-phenyl)-4-oxo-1H-quinoline-3-carboxamide], the EC50 is less than 10 µM and the “% Activity” value is “++ (between 25% to 100%)”. In the case of `O=C(Nc1ccc2c(C(F)(F)F)c[nH]c2c1)c1c[nH]c2ccccc2c1=O` [Compound 545, 4-oxo-N-[3-(trifluoromethyl)-1H-indol-6-yl]-1H-quinoline-3-carboxamide], the concentration for a half-maximal effect (EC50) was less than 10 µM and the “% Activity” value was “+++ (>100%)”. For the molecule `Cc1cccc2[nH]cc(C(=O)Nc3ccc(N4CCC(C)C4)cc3C(F)(F)F)c(=O)c12` (stereo not drawn) [Compound 546, 5-methyl-N-[4-(3-methylpyrrolidin-1-yl)-2-(trifluoromethyl)phenyl]-4-oxo-1H-quinoline-3-carboxamide], the concentration for a half-maximal effect (EC50) is less than 10 µM and the “% Activity” value is recorded as “++ (between 25% to 100%)”. For `Cc1cccc2[nH]cc(C(=O)Nc3ccc(OC(C)C)cc3C(F)(F)F)c(=O)c12` [Compound 547, N-[4-isopropoxy-2-(trifluoromethyl)phenyl]-5-methyl-4-oxo-1H-quinoline-3-carboxamide], the EC50 was less than 10 µM and the “% Activity” value is recorded as “+++ (>100%)”. As to `CC(C)(C)c1cc(C(C)(C)C)c(NC(=O)c2c[nH]c3cc(C#N)ccc3c2=O)cc1O` [Compound 548, 7-cyano-N-(5-hydroxy-2,4-ditert-butyl-phenyl)-4-oxo-1H-quinoline-3-carboxamide], the EC50 is less than 10 µM and the “% Activity” value is recorded as “++ (between 25% to 100%)”.

Take `O=C(Nc1cccc(-c2cccs2)c1)c1c[nH]c2ccccc2c1=O` [Compound 549, 4-oxo-N-[3-(2-thienyl)phenyl]-1H-quinoline-3-carboxamide]: the EC50 is less than 10 µM and the “% Activity” value is reported as “++ (between 25% to 100%)”. For the molecule `COC(=O)[C@@H]1C[C@@H](OC(C)(C)C)CN1c1ccc(NC(=O)c2c[nH]c3ccccc3c2=O)c(C(F)(F)F)c1` [Compound 550, (2S,4R)-methyl 4-tert-butoxy-1-(4-(4-oxo-1,4-dihydroquinoline-3-carboxamido)-3-(trifluoromethyl)phenyl)pyrrolidine-2-carboxylate], the EC50 was less than 10 µM and the “% Activity” value is given as “++ (between 25% to 100%)”. In the case of `O=C(Nc1cc(O)c2ccccc2c1)c1c[nH]c2ccccc2c1=O` [Compound 551, N-(4-hydroxy-2-naphthyl)-4-oxo-1H-quinoline-3-carboxamide], the “% Activity” value is on record as “++ (between 25% to 100%)”. For the molecule `CC(C)(C)c1cc(C(C)(C)C)c(NC(=O)c2c[nH]c3ccc(Br)cc3c2=O)cc1O` [Compound 553, 6-bromo-N-(5-hydroxy-2,4-ditert-butyl-phenyl)-4-oxo-1H-quinoline-3-carboxamide], the concentration giving a half-maximal response (EC50) was less than 10 µM and the “% Activity” value is listed as “++ (between 25% to 100%)”. As for `CC(C)(C)c1c[nH]c2cc(NC(=O)c3c[nH]c4ccc(F)cc4c3=O)ccc12` [Compound 554, 6-fluoro-4-oxo-N-(3-tert-butyl-1H-indol-6-yl)-1H-quinoline-3-carboxamide], the concentration for a half-maximal effect (EC50) is less than 10 µM and the “% Activity” value is reported as “++ (between 25% to 100%)”. For the molecule `CC1CCN(c2ccc(NC(=O)c3c[nH]c4ccccc4c3=O)c(C(F)(F)F)c2)C1` (stereo not drawn) [Compound 555, N-[4-(3-methylpyrrolidin-1-yl)-2-(trifluoromethyl)phenyl]-4-oxo-1H-quinoline-3-carboxamide], the 50% effective concentration (EC50) was less than 10 µM and the “% Activity” value is recorded as “++ (between 25% to 100%)”.

The values are drawn from US8614327B2 (Vertex Pharmaceuticals Incorporated, priority 2004, dated 2013).
